Reference: paper PMC9848300, “Discovery of novel enasidenib analogues targeting inhibition of mutant isocitrate dehydrogenase 2 as antileukaemic agents” (Journal of Enzyme Inhibition and Medicinal Chemistry, 2023)

Key:
[1] = tested on: MDA-MB-231/ATCC; assay: NCI 60 antitumor screening (single dose / five doses); type: cell-based; conditions: Homo sapiens; MDA-MB-231/ATCC (breast cancer), single dose 10 μM; read-out: Growth inhibition percentage (GI %)
[2] = tested on: SN 12C; assay: as above; type: cell-based; conditions: Homo sapiens, SN12C; SN 12C (renal cancer), single dose 10 μM; read-out: Growth inhibition percentage (GI %)
[3] = tested on: UACC-62; assay: as above; type: cell-based; conditions: Homo sapiens; UACC-62 (melanoma), single dose 10 μM; read-out: Growth inhibition percentage (GI %)
[4] = tested on: SK-MEL-5; assay: as above; type: cell-based; conditions: Homo sapiens; SK-MEL-5 (melanoma), single dose 10 μM; read-out: Growth inhibition percentage (GI %)
[5] = tested on: DU-145; assay: as above; type: cell-based; conditions: Homo sapiens; DU-145 (prostate cancer), single dose 10 μM; read-out: Growth inhibition percentage (GI %)
[6] = tested on: MDA-MB-435; assay: as above; type: cell-based; conditions: Homo sapiens; MDA-MB-435 (melanoma), single dose 10 μM; read-out: Growth inhibition percentage (GI %)
[7] = tested on: ACHN; assay: as above; type: cell-based; conditions: Homo sapiens; ACHN (renal cancer), single dose 10 μM; read-out: Growth inhibition percentage (GI %)
[8] = tested on: SW-620; assay: as above; type: cell-based, human; conditions: Homo sapiens; SW-620 (colon cancer), single dose 10 μM; read-out: Growth inhibition percentage (GI %)
[9] = tested on: RXF 393; assay: as above; type: cell-based; conditions: Homo sapiens; RXF 393 (renal cancer), single dose 10 μM; read-out: Growth inhibition percentage (GI %)
[10] = tested on: SR; assay: as above; type: cell-based; conditions: Homo sapiens; SR (leukaemia), single dose 10 μM; read-out: Growth inhibition percentage (GI %)
[11] = tested on: SK-MEL-28; assay: as above; type: cell-based; conditions: Homo sapiens; SK-MEL-28 (melanoma), single dose 10 μM; read-out: Growth inhibition percentage (GI %)
[12] = tested on: UACC-257; assay: as above; type: cell-based; conditions: Homo sapiens; UACC-257 (melanoma), single dose 10 μM; read-out: Growth inhibition percentage (GI %)
[13] = tested on: MALME-3M; assay: as above; type: cell-based; conditions: Homo sapiens; MALME-3M (melanoma), single dose 10 μM; read-out: Growth inhibition percentage (GI %)
[14] = tested on: HS 578T; assay: NCI 60 antitumor screening (single dose); type: cell-based; conditions: Homo sapiens; HS 578T (breast cancer), single dose 10 μM; read-out: Growth inhibition percentage (GI %)
How it was run: (§1)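 NCI-60 protocol: single 10 μM dose against each cell line, run in triplicate. Percent growth (G%) of treated cells measured and growth inhibition reported as GI% = 100 − G%; panel mean also given.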

[15] = tested on: SK-OV-3; assay: NCI 60 antitumor screening (single dose); type: cell-based; conditions: Homo sapiens; SK-OV-3 (ovarian cancer), single dose 10 μM; read-out: Growth inhibition percentage (GI %)
How it was run: (§2)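 Values are GI% (100 minus percent growth, G%) from the NCI 60 cell line screen at one 10 μM concentration. Tests were done in triplicate under NCI protocol, with a mean across the whole panel reported as well.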

[16] = tested on: PC-3; assay: NCI 60 antitumor screening (single dose); type: cell-based; conditions: Homo sapiens; PC-3 (prostate cancer), single dose 10 μM; read-out: Growth inhibition percentage (GI %)
How it was run: as §1

[17] = tested on: NCI-H460; assay: NCI 60 antitumor screening (single dose); type: cell-based; conditions: Homo sapiens; NCI-H460 (non-small cell lung cancer), single dose 10 μM; read-out: Growth inhibition percentage (GI %)
How it was run: as §2

[18] = tested on: COLO 205; assay: NCI 60 antitumor screening (single dose / five doses); type: cell-based; conditions: Homo sapiens; COLO 205 (colon cancer), single dose 10 μM; read-out: Growth inhibition percentage (GI %)
[19] = tested on: NCI/ADR-RES; assay: as above; type: cell-based; conditions: Homo sapiens; NCI/ADR-RES (ovarian cancer), single dose 10 μM; read-out: Growth inhibition percentage (GI %)
[20] = tested on: CCRF-CEM; assay: as above; type: cell-based; conditions: Homo sapiens; CCRF-CEM (leukaemia), single dose 10 μM; read-out: Growth inhibition percentage (GI %)
[21] = tested on: EKVX; assay: as above; type: cell-based; conditions: Homo sapiens; EKVX (non-small cell lung cancer), single dose 10 μM; read-out: Growth inhibition percentage (GI %)
[22] = tested on: MDA-MB-468; assay: as above; type: cell-based; conditions: Homo sapiens; MDA-MB-468 (breast cancer), single dose 10 μM; read-out: Growth inhibition percentage (GI %)
[23] = tested on: SF-539; assay: as above; type: cell-based; conditions: Homo sapiens; SF-539 (CNS cancer), single dose 10 μM; read-out: Growth inhibition percentage (GI %)
[24] = tested on: SNB-75; assay: as above; type: cell-based; conditions: Homo sapiens; SNB-75 (CNS cancer), single dose 10 μM; read-out: Growth inhibition percentage (GI %)
[25] = tested on: A498; assay: as above; type: cell-based; conditions: Homo sapiens; A498 (renal cancer), single dose 10 μM; read-out: Growth inhibition percentage (GI %)
[26] = tested on: HOP-92; assay: as above; type: cell-based; conditions: Homo sapiens; HOP-92 (non-small cell lung cancer), single dose 10 μM; read-out: Growth inhibition percentage (GI %)
[27] = tested on: HT29; assay: as above; type: cell-based, human; conditions: Homo sapiens, HT-29; HT29 (colon cancer), single dose 10 μM; read-out: Growth inhibition percentage (GI %)
[28] = tested on: IGROV1; assay: as above; type: cell-based; conditions: Homo sapiens, IGROV-1; IGROV1 (ovarian cancer), single dose 10 μM; read-out: Growth inhibition percentage (GI %)

SMILES | inhibition at 10 µM [1] [%] | inhibition at 10 µM [2] [%] | inhibition at 10 µM [3] [%] | inhibition at 10 µM [4] [%] | inhibition at 10 µM [5] [%] | inhibition at 10 µM [6] [%] | inhibition at 10 µM [7] [%] | inhibition at 10 µM [8] [%] | inhibition at 10 µM [9] [%] | inhibition at 10 µM [10] [%] | inhibition at 10 µM [11] [%] | inhibition at 10 µM [12] [%] | inhibition at 10 µM [13] [%] | inhibition at 10 µM [14] [%] | inhibition at 10 µM [15] [%] | inhibition at 10 µM [16] [%] | inhibition at 10 µM [17] [%] | inhibition at 10 µM [18] [%] | inhibition at 10 µM [19] [%] | inhibition at 10 µM [20] [%] | further results
Fc1cccc(Cl)c1/C=N/Nc1nc(N/N=C/c2c(F)cccc2Cl)nc(N2CCOCC2)n1 [compound 6l, 2,4-Bis[(E)-2-[(2-Chloro-6-fluorophenyl)methylidene]hydrazin-1-yl]-6-(morpholin-4-yl)-1,3,5-triazine] | 10.7 | 15.3 | 19.8 | 44.9 | 4.76 | 19.4 | 7.67 | 9.73 | 17.8 | 27.8 | 10 | 17 | 16 | 5 | 7.59 | 19.3 | 23.1 | 29.6 | 16.8 | 18.9 | inhibition at 10 µM [21]: 45.5%; inhibition at 10 µM [22]: 24.6%; inhibition at 10 µM [23]: 7.53%; inhibition at 10 µM [24]: 9.55%; inhibition at 10 µM [25]: 26.9%; inhibition at 10 µM [26]: 27%; inhibition at 10 µM [27]: 30.6%; inhibition at 10 µM [28]: 41.4%
Oc1ccccc1/C=N/Nc1nc(N/N=C/c2ccccc2O)nc(N2CCCCC2)n1 [compound 7a, 2-[(1e)-(2-{4-[(E)-2-[(2-Hydroxyphenyl)methylidene]hydrazin-1-yl]-6-(piperidin-1-yl)-1,3,5-triazin-2-yl}hydrazin-1-ylidene)methyl] phenol] | 34.5 | 40.5 | 29.7 | 25.6 | 45.2 | 30.9 | 63.1 | 32.2 | 17 | 60.2 | 36.6 | 20.9 | 33.1 | 23.4 | 12 | 55.2 | 60.5 | 75.5 | 81 | 78.3 | inhibition at 10 µM [21]: 69.9%; inhibition at 10 µM [22]: 36.2%; inhibition at 10 µM [23]: 40.6%; inhibition at 10 µM [24]: 25.6%; inhibition at 10 µM [25]: 17%; inhibition at 10 µM [26]: 21.6%; inhibition at 10 µM [27]: 54.7%; inhibition at 10 µM [28]: 54.8%
Brc1cccc(/C=N/Nc2nc(N/N=C/c3cccc(Br)c3)nc(N3CCCCC3)n2)c1 [compound 7c, 2,4-Bis[(E)-2-[(3-Bromophenyl)methylidene]hydrazin-1-yl]-6-(piperidin-1-yl)-1,3,5-triazine] | -8.36 | -1.41 | 14.5 | 28.6 | -1.2 | 4.57 | -5.5 | -8.28 | -16.1 | 12.9 | 0.82 | -4.98 | 15.1 | -21.2 | -9 | 19.8 | -2.41 | -5.18 | 9.29 | 18.7 | inhibition at 10 µM [21]: 22.4%; inhibition at 10 µM [22]: 9.99%; inhibition at 10 µM [23]: -6.24%; inhibition at 10 µM [24]: -17.3%; inhibition at 10 µM [25]: 12.2%; inhibition at 10 µM [26]: -12.8%; inhibition at 10 µM [27]: 3.98%; inhibition at 10 µM [28]: -0.7%
Clc1cccc(/C=N/Nc2nc(N/N=C/c3cccc(Cl)c3)nc(N3CCCCC3)n2)c1 [compound 7d, 2,4-Bis[(E)-2-[(3-Chlorophenyl)methylidene]hydrazin-1-yl]-6-(piperidin-1-yl)-1,3,5-triazine] | -16.1 | 7.63 | 20.8 | 19.4 | 5.38 | 9.61 | -1.44 | -2.95 | 6.56 | 25.4 | 3.79 | -11.1 | -9.06 | -4.65 | -9.25 | 24 | 3.48 | -1.88 | 4.8 | 25 | inhibition at 10 µM [21]: 21.6%; inhibition at 10 µM [22]: 23.7%; inhibition at 10 µM [23]: -5.25%; inhibition at 10 µM [24]: -2.48%; inhibition at 10 µM [25]: 7.8%; inhibition at 10 µM [26]: -7.89%; inhibition at 10 µM [27]: 14.4%; inhibition at 10 µM [28]: -4.79%
Fc1cccc(/C=N/Nc2nc(N/N=C/c3cccc(F)c3)nc(N3CCCCC3)n2)c1 [compound 7e, 2,4-Bis[(E)-2-[(3-Fluorophenyl)methylidene]hydrazin-1-yl]-6-(piperidin-1-yl)-1,3,5-triazine] | -0.43 | 5.08 | 25.8 | 32.1 | 2.92 | 8.23 | 8.6 | -7.5 | -12.5 | 31.9 | 9.32 | -0.08 | -0.5 | -13.2 | -14.6 | 31.4 | 8.63 | -0.08 | 23.9 | 41.3 | inhibition at 10 µM [21]: 29.3%; inhibition at 10 µM [22]: 9.17%; inhibition at 10 µM [23]: -3.16%; inhibition at 10 µM [24]: -14.6%; inhibition at 10 µM [25]: 15.7%; inhibition at 10 µM [26]: -16%; inhibition at 10 µM [27]: 8.7%; inhibition at 10 µM [28]: 9.61%
